From US9969687B2, “Compounds useful as CCR9 modulators” (Norgine B.V., priority 2013, dated 2018)

How the values were obtained:
CCR9 [1] = biological target: T1, CCR9 (Homo sapiens (Human), UniProt P51686); experiment: FLIPR calcium flux assay using hCCR9 over expressed cells (Chem1-hCCR9), TECK stimulation; format: cell-based; conditions: Chem1-hCCR9 overexpressing cells
Method in brief: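 Chem1 cells overexpressing hCCR9, loaded with Fluo-4 NW dye (HBSS/20 mM HEPES, probenecid), preincubated 60 min with compound (10 μM-0.1 nM final), then stimulated with TECK at EC80. Calcium rise read on FLIPR; IC50 from four-parameter fit, Ki derived from IC50 using TECK concentration and same-day TECK EC50.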

CCR9 [2] = biological target: T1, CCR9; experiment: FLIPR calcium flux assay using MOLT4 cells, TECK stimulation; format: cell-based; conditions: MOLT4 cells (human T-cell line)
Method in brief: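 MOLT4 cells in HBSS/20 mM HEPES with probenecid, Fluo-4 NW loaded, preincubated with compound (10 μM-0.1 nM final, half-log) for 60 min before TECK stimulation. Calcium rise read on FLIPR; IC50 from four-parameter fit, converted to Ki using TECK concentration and same-day TECK EC50.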

T1 sequence (P51686 whole entry): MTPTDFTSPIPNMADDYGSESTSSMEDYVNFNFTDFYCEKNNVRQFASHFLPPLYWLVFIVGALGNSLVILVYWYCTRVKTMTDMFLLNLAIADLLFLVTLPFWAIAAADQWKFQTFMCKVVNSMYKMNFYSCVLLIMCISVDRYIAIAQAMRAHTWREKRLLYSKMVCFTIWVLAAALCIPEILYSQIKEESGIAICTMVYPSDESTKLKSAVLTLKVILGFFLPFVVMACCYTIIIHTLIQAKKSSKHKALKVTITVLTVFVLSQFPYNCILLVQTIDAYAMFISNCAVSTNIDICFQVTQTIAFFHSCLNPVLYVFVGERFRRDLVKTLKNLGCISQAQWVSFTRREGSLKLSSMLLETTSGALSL

Ki (CCR9 [1]) [nM] | Ki (CCR9 [2]) [nM] | SMILES
23 | 3 | CC(C)(C)c1ccc(S(=O)(=O)Nc2ccc(Cl)c3c2C(=O)N(c2ccsc2C(=O)O)C3=O)cc1 [Compound 288]
14 | 7 | CCOC(=O)c1c(N2C(=O)c3c(Cl)ccc(NS(=O)(=O)c4ccc(C(C)(C)C)cc4)c3C2=O)ccc[n+]1[O-] [Compound 290]
15 | 5 | COC(=O)c1cc(N2C(=O)c3c(Cl)ccc(NS(=O)(=O)c4ccc(C(C)(C)C)cc4)c3C2=O)n(C)n1 [Compound 291]
16 | 11 | COC(=O)c1cc(N2C(=O)c3c(Cl)ccc(NS(=O)(=O)c4ccc(C(C)(C)C)cc4)c3C2=O)nn1C [Compound 292]
